Patent US6416783B1, “Aspartic and malic acid inhibition of ss-glucuronidase” (Wisconsin Alumni Research Foundation, priority 1999, dated 2002)
Values joined by “and” are separate entries in the source; they are usually repeats but may differ in a detail not shown here. Equal entries are not always repeated. “Also recorded” adds a separate entry of the source. Where two headings read alike, the source gives them in different places.

Molecular target: T1, β-glucuronidase (Homo sapiens, UniProt P08236)
T1 construct: We used human breast milk collected and pooled from a newborn nursery as the β-glucuronidase source; from tissue
T1 sequence (P08236 23-651): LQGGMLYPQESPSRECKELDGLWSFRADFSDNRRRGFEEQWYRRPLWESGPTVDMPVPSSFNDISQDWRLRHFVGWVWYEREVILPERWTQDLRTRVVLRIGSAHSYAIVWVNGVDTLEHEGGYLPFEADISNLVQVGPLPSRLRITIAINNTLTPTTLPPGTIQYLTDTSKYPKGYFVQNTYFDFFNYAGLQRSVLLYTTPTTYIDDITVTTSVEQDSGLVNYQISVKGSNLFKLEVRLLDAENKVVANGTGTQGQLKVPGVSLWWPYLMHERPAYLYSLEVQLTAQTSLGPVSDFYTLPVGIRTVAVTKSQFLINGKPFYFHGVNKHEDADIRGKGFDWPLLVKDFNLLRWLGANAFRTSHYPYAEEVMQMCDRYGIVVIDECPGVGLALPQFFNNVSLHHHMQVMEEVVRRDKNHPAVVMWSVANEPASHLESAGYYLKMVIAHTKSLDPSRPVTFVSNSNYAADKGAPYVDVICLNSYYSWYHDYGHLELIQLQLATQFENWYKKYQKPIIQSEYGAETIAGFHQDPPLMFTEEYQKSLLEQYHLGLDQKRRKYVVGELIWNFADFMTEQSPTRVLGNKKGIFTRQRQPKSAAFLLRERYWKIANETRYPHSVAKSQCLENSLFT
Assay: Standard Test: β-glucuronidase activity of human breast milk with MUG substrate (fluorescence)
Type: biochemical
Details: for mean (X̄) activity / X (mean activity): mean of 3; for Activity (pmole/tube/hr) / β-glucuronidase activity (row unlabelled): single replicates; for β-glucuronidase activity, % (of control): 0.1, 1, 10 mM; for X (mean activity) / β-glucuronidase activity (row unlabelled): in pmol/tube/h; for concentration with significant β-glucuronidase inhibitory activity: tested 10 to 10,000 μM
Method: We first developed a standard assay procedure (the “Standard Test”). We used human breast milk collected and pooled from a newborn nursery as the β-glucuronidase source. The samples were stored at −20° C. The milk was thawed and diluted 10× with 0.2 M sodium acetate/glacial acetic acid (NaAC) buffer pH 4.5 just prior to being used. A 4.0 mM stock solution of 4-methylumbelliferyl β-D-glucuronide (MUG, Sigma M-9130 lot#75H3777) was prepared in 0.2 M NaAC buffer pH 4.5.
Triplicate test and blank tubes contained a reaction mixture consisting of 50 μL diluted breast milk and 50 μL of an inhibitor solution diluted with 0.2 M NaAC buffer pH 4.5. Controls were prepared that contained only 50 μL diluted breast milk and 50 μL 0.2 M NaAC buffer pH 4.5. The assay was started by adding 25 μl of the MUG (4.0 mM, 0.800 mM final concentration) to the test sample to start the reaction. The final volume of the reaction was 125 μL. Both blank and test samples were vortexed and incubated at 37° C. for 1 hour (or for shorter times if indicated).
The reaction was quenched in both the test and blank samples with 3.0 ml of glycine-carbonate (320 mM: 200 mM) buffer pH 10.0. The blank samples had 25 μl of the MUG (4.0 mM, 0.800 mM final) added to them and all tubes were vortexed.
The resulting fluorescence was read using a Perkin Elmer LS5-B fluorescence spectrophotometer (360 nm excitation, 445 nm emission, autorange scale). The amount of 4-methylumbelliferone (4-MU) released by the β-glucuronidase was calculated using a 4-MU quadratic standard curve and the Mathplot software. The velocity was calculated as pmoles of 4-MU formed per hour per ml undiluted breast milk.
We diluted pooled breast milk 20× with 0.2 M NaAC buffer pH 4.5. We diluted 2.2% w/v solution of Amicase (Sigma Cat. #A2427—a mixture of free amino acids with virtually no unhydrolyzed peptides, only minimal inorganic components are present, total nitrogen ˜12.8%, amino nitrogen ˜9.8%) with buffer 5×. We then incubated 50 μl milk with 50 μl buffer and Amicase. We then added 25 μl MUG to start the reaction. We then quenched with Na-carbonate buffer pH 10.0 and read fluorescence at 360 nm ex 445 nm em. Autorange scale. The mixture of amino acids was compared to controls and Nutramigen® as follows:
We then studied the effect of specific amino acid mixtures on β-glucuronidase activity. We diluted pooled breast milk 10× with 0.2 M NaAC buffer pH 4.5 and diluted 50×stock essential amino acid solution (Sigma Cat #M7020=L-arginine.HCl 6.32 g/L, L-cystine 1.2 g/L, L-histidine.HCl.H20 2.1 g/L, L-isoleucine 2.625 g/L, L-leucine 2.62 g/L, L-lyscine.HCl 3.625 g/L, L-methionine 0.755 g/L, L-phenylalanine 1.65 g/L, L-threonine 2.38 g/L, L-tryptophane 0.51 g/L, L-tyrosine 1.8 g/L, L-valine 2.34 g/L).
We also used a non-essential AA solution=Sigma Cat #M7145=L-alanine HCl 0.89 g/L, L-asparagine.H20 1.50 g/L, L-aspartic acid 1.33 g/L, L-glutamic acid 1.47 g/L, glycine 0.75 g/L, L-proline 1.15 g/L, L-serine 1.05 g/L.
We 5×diluted 100×stock essential AA solution. We incubated 50 μl diluted milk with 50 μl buffer (control), or the essential AA solution, or the non-essential AA solution, or Nutramigen® RTU, added 25 μl MUG to start the reaction, quenched with Na-carbonate buffer, and read fluorescence (360 nm excitation: 445 nm emission). The results are as follows:
We then analyzed inhibitory effect of each of the seven amino acids in the non-essential amino acid mixture. We diluted pooled breast milk 10× with 0.2 M NaAC buffer pH 4.5, and diluted Nutramigen® RTU (N) and Nutramigen® lipid-free supernatant (LFS) 5 fold with 0.2 M NaAC buffer pH 4.5.
We prepared stock solutions of each of the non-essential amino acids L-alanine (Ala), L-asparagine (Asn), L-aspartic acid (Asp), L-glutamic acid (Glu), glycine (Gly), L-proline (Pro), and L-Serine (Ser). All solutions were at pH 4.5. The final concentration of each amino acid in the assay was the same as when the amino acids were analyzed as a mixture. […]

[1] = Example 4, 0.1 mM, read-out: % (activity relative to control)
[2] = Example 4, 1 mM, read-out: % (activity relative to control)
[3] = Example 4, 10 mM, read-out: % (activity relative to control)
[4] = Example 5, Conc. 10 μm, read-out: % (activity relative to control)
[5] = Example 5, Conc. 100 μm, read-out: % (activity relative to control)
[6] = Example 5, Conc. 1,000 μm, read-out: % (activity relative to control)
[7] = Example 5, Conc. 10,000 μm, read-out: % (activity relative to control)

C[C@H](N)C(=O)O [Ala, L-alanine]
remaining activity at 35.6 µg/mL (Example 3, 35.6 μg/ml, read-out: % (activity relative to control)): 99.5%
mean (X̄) activity (Example 3, 35.6 μg/ml): 671.0 pmole/tube/hr
Activity (pmole/tube/hr) (Example 3, 35.6 μg/ml): 686.2 pmole/tube/hr and 670.9 pmole/tube/hr and 656.0 pmole/tube/hr

CC(=O)N[C@H]1C(O)O[C@H](CO)[C@H](O)[C@@H]1O (stereo partly drawn) [NAG, N-acetyl-D-galactosamine]
remaining activity at 100 µM [1]: 98.4%
remaining activity at 1000 µM [2]: 99.3%
remaining activity at 10000 µM [3]: 100%
β-glucuronidase activity, % (of control) (Example 4): 98-100%
X (mean activity) (Example 4, 0.1 mM): 814.1
X (mean activity) (Example 4, 1 mM): 821.6
X (mean activity) (Example 4, 10 mM): 827.9
β-glucuronidase activity (row unlabelled) (Example 4, 0.1 mM): 811.8 and 817.0 and 813.4
β-glucuronidase activity (row unlabelled) (Example 4, 1 mM): 805.6 and 850.0 and 809.3
β-glucuronidase activity (row unlabelled) (Example 4, 10 mM): 835.1 and 824.1 and 824.3

O=C[C@H](O)[C@@H](O)[C@@H](O)[C@H](O)CO [D-gal, D(+)galactose]
remaining activity at 100 µM [1]: 99.1%
remaining activity at 1000 µM [2]: 99.2%
remaining activity at 10000 µM [3]: 99.2%
β-glucuronidase activity, % (of control) (Example 4): 99%
X (mean activity) (Example 4, 0.1 mM): 820.2
X (mean activity) (Example 4, 1 mM): 812.2
X (mean activity) (Example 4, 10 mM): 820.5
β-glucuronidase activity (row unlabelled) (Example 4, 0.1 mM): 816.8 and 812.8 and 830.9
β-glucuronidase activity (row unlabelled) (Example 4, 1 mM): 825.6 and 808.7 and 802.5
β-glucuronidase activity (row unlabelled) (Example 4, 10 mM): 806.6 and 833.7 and 821.3

NCC(=O)O [Gly, glycine]
remaining activity at 30 µg/mL (Example 3, 30.0 μg/ml, read-out: % (activity relative to control)): 102%
mean (X̄) activity (Example 3, 30.0 μg/ml): 685.5 pmole/tube/hr
Activity (pmole/tube/hr) (Example 3, 30.0 μg/ml): 674.7 pmole/tube/hr and 695.4 pmole/tube/hr and 686.5 pmole/tube/hr

O=C(O)C[C@H](O)C(=O)O [L-malic acid]
effect on β-glucuronidase activity (in words): significantly inhibit β-glucuronidase; also recorded: contributed to the inhibition of β-glucuronidase at similar concentrations to L-aspartic acid

N[C@H](CC(=O)O)C(=O)O [D-asp, D-aspartic acid]
remaining activity at 10 µM [4]: 98.4%
remaining activity at 100 µM [5]: 97.5%
remaining activity at 1000 µM [6]: 98.1%
remaining activity at 10000 µM [7]: 86.2%
mean (X̄) activity (Example 5, Conc. 10 μm): 701.0 pmole/tube/hr
mean (X̄) activity (Example 5, Conc. 100 μm): 694.8 pmole/tube/hr
mean (X̄) activity (Example 5, Conc. 1,000 μm): 699.2 pmole/tube/hr
mean (X̄) activity (Example 5, Conc. 10,000 μm): 614.7 pmole/tube/hr
Activity (pmole/tube/hr) (Example 5, Conc. 10 μm): 706.2 pmole/tube/hr and 705.1 pmole/tube/hr and 691.7 pmole/tube/hr
Activity (pmole/tube/hr) (Example 5, Conc. 100 μm): 692.3 pmole/tube/hr and 709.8 pmole/tube/hr and 682.1 pmole/tube/hr
Activity (pmole/tube/hr) (Example 5, Conc. 1,000 μm): 704.2 pmole/tube/hr and 702.3 pmole/tube/hr and 691.2 pmole/tube/hr
Activity (pmole/tube/hr) (Example 5, Conc. 10,000 μm): 626.2 pmole/tube/hr and 614.9 pmole/tube/hr and 602.9 pmole/tube/hr
concentration with significant β-glucuronidase inhibitory activity (Example 5): 10,000 μM

O=C(O)[C@@H]1CCCN1 [Pro, L-proline]
remaining activity at 46 µg/mL (Example 3, 46.0 μg/ml, read-out: % (activity relative to control)): 99.3%
mean (X̄) activity (Example 3, 46.0 μg/ml): 669.6 pmole/tube/hr
Activity (pmole/tube/hr) (Example 3, 46.0 μg/ml): 666.1 pmole/tube/hr and 679.7 pmole/tube/hr and 662.9 pmole/tube/hr

N[C@@H](CO)C(=O)O [Ser, L-Serine]
remaining activity at 42.2 µg/mL (Example 3, 42.2 μg/ml, read-out: % (activity relative to control)): 99.3%
mean (X̄) activity (Example 3, 42.2 μg/ml): 669.2 pmole/tube/hr
Activity (pmole/tube/hr) (Example 3, 42.2 μg/ml): 677.7 pmole/tube/hr and 670.6 pmole/tube/hr and 659.2 pmole/tube/hr

N[C@@H](CCC(=O)O)C(=O)O [Glu, L-glutamic acid]
mean (X̄) activity (Example 3, 58.8 μg/ml): 660.0 pmole/tube/hr
Activity (pmole/tube/hr) (Example 3, 58.8 μg/ml): 658.8 pmole/tube/hr and 657.5 pmole/tube/hr and 663.7 pmole/tube/hr
remaining activity at 58.8 µg/mL (read-out: % (activity relative to control)): 97.9%

NC(=O)C[C@H](N)C(=O)O [Asn, L-asparagine]
remaining activity at 61.4 µg/mL (Example 3, 61.4 μg/ml, read-out: % (activity relative to control)): 97.8%
mean (X̄) activity (Example 3, 61.4 μg/ml): 659.2 pmole/tube/hr
Activity (pmole/tube/hr) (Example 3, 61.4 μg/ml): 663.2 pmole/tube/hr and 667.6 pmole/tube/hr and 646.7 pmole/tube/hr

N[C@@H](CC(=O)O)C(=O)O [Asp, L-aspartic acid]
effect on β-glucuronidase activity (in words): significantly inhibit β-glucuronidase; also recorded: significant β-glucuronidase inhibitory activity
remaining activity at 53.2 µg/mL (Example 3, 53.2 μg/ml, read-out: % (activity relative to control)): 73.7%
mean (X̄) activity (Example 3, 53.2 μg/ml): 496.5 pmole/tube/hr
Activity (pmole/tube/hr) (Example 3, 53.2 μg/ml): 494.8 pmole/tube/hr and 500.8 pmole/tube/hr and 493.9 pmole/tube/hr
potency in β-glucuronidase inhibition relative to D-aspartic acid (Example 5): approximately 100 times
remaining activity at 10 µM [4]: 97.4%
remaining activity at 100 µM [5]: 89.3%
remaining activity at 1000 µM [6]: 53%
remaining activity at 10000 µM [7]: 8.4%
mean (X̄) activity (Example 5, Conc. 10 μm): 693.9 pmole/tube/hr
mean (X̄) activity (Example 5, Conc. 100 μm): 636.4 pmole/tube/hr
mean (X̄) activity (Example 5, Conc. 1,000 μm): 377.5 pmole/tube/hr
mean (X̄) activity (Example 5, Conc. 10,000 μm): 60.2 pmole/tube/hr
Activity (pmole/tube/hr) (Example 5, Conc. 10 μm): 692.5 pmole/tube/hr and 705.8 pmole/tube/hr and 683.2 pmole/tube/hr
Activity (pmole/tube/hr) (Example 5, Conc. 100 μm): 641.0 pmole/tube/hr and 640.1 pmole/tube/hr and 628.0 pmole/tube/hr
Activity (pmole/tube/hr) (Example 5, Conc. 1,000 μm): 405.5 pmole/tube/hr and 378.0 pmole/tube/hr and 349.1 pmole/tube/hr
Activity (pmole/tube/hr) (Example 5, Conc. 10,000 μm): 62.7 pmole/tube/hr and 59.2 pmole/tube/hr and 58.6 pmole/tube/hr
concentration with significant β-glucuronidase inhibitory activity (Example 5): > 10 µM
pH of maximum inhibition of β-glucuronidase (pH experiments): ~5
